Reference: publication PMC4626215, “Esculentin-2CHa-Related Peptides Modulate Islet Cell Function and Improve Glucose Tolerance in Mice with Diet-Induced Obesity and Insulin Resistance” (PLoS ONE, 2015)
Bridges are numbered along the chain shown (N, C = ends). Where no end group is shown, it is not given here.

Legend:
high fat fed mice [1] = assay: Longer-term (28 day) in vivo study; parameters: species or system mouse; Reduction of pancreatic glucagon / Reduction of plasma glucagon / Reduction of total islet area / Reduction of beta cell area / Reduction of alpha cell area: concentration or dose not given beside the values
Protocol: (§1) Male National Institutes of Health (NIH) Swiss mice (Harlan Ltd, UK) were housed separately in an air-conditioned room (22 ± 2°C) with relative humidity of 51 ± 5% and a 12-hour light: 12-hour dark cycle and maintained on a high fat diet containing 45% fat, 20% protein and 35% carbohydrate (total energy 19.5 kJ/g, Dietex International Ltd, Witham, UK) for 120 days. Mice maintained on standard rodent diet containing 10% fat, 30% protein and 60% carbohydrates (total energy 12.99 kJ/g) were used as controls. Both groups of animals were allowed food and water ad libitum. All animal experiments were carried out in accordance with the UK Animals (Scientific Procedures) Act 1986 and EU Directive 2010/63EU for animal experiments. The study was approved by University of Ulster Research Ethics Committee.
High-fat fed mice with clearly manifested features of obesity and hyperglycaemia received twice daily injections of either saline vehicle (0.9% (w/v) (high fat fed controls) or [L28K]esculentin-2CHa (75 nmol/kg body weight) for 28 days. This peptide was chosen based on its potent in vitro and acute in vivo actions. Mice (n = 8) fed standard rodent diet and injected with saline were used as lean controls. Energy intake, bodyweight, non-fasting blood glucose and plasma insulin concentrations were monitored every 72 h throughout the duration of the study. At the end of the 28 day treatment period, glucose tolerance (18 mmol/kg body weight, intraperitoneal or oral, overnight fasted) and insulin sensitivity (25 U/kg body weight) were assessed as previously described. Indirect calorimetry and energy expenditure in treated and control mice were measured using the Comprehensive Laboratory Animal Monitoring System (CLAMS) metabolic chambers (Columbus Instruments, Columbus, OH, USA). Total body lean and fat mass, bone mineral density and bone mineral content were also measured using DXA scanning (Piximus Densitometer, USA). Improvement in beta cell function in [L28K]esculentin-2CHa-treated and control mice were evaluated from the insulin secretory responses of islets isolated from these animals to established insulin secretagogues and incretin hormones (16.7 mM glucose, 1 μM GLP-1, 1 μM GIP, 10 mM alanine, 10 mM arginine and 30 mM KCl). Changes in islet morphology were assessed using pancreatic tissues excised from mice treated with [L28K]esculentin-2CHa or saline for 28 days as previously described.
(§2) Pancreatic tissues were homogenized in 20 mM Tris-HCl, 150 mM NaCl, 1 mM EDTA, 1 mM EGTA and 0.5% Triton X 100; pH 7.5 as previously described. Blood samples (approximately 150 μl), collected from the cut tip of the tail vein of unanesthetized mice at intervals indicated in the Figures were used for blood glucose measurements and determination of plasma insulin as previously described. Blood glucose was measured using a hand-held Ascencia Contour meter (Bayer Healthcare, UK). Plasma and pancreatic insulin were determined by radioimmunoassay. Plasma and pancreatic glucagon contents were determined by ELISA using commercially available kit (Millipore, MA, USA). Plasma creatinine, alanine transaminase (ALT), aspartic acid transaminase (AST) and alkaline phosphatase (ALP) were measured using commercially available kits (Randox Laboratories, UK) as indicators of renal and liver function. Plasma triglyceride and cholesterol concentrations were measured using an automated clinical chemistry analyser (I-lab 650, and reagents purchased from Instrumentation Laboratory (Warrington, UK). The assay kit for cholesterol was obtained from Randox Laboratories (Antrim, UK). Estimation of LDL cholesterol concentrations was achieved using the Friedewald equation as described previously.

[2] = test system: islets from NIH Swiss mice; assay: In vitro insulin release from isolated mouse islets; type: cell-based; settings: 16.7 mM glucose
Protocol: (§4) In vitro insulin-releasing effects of esculentin-2CHa and its analogues were assessed using BRIN-BD11 rat clonal β-cells and mouse islets. In the first set of experiments, BRIN-BD11 cells were incubated with the peptides in the concentration range (1 pM– 3 μM) in Krebs-Ringer bicarbonate buffer containing 5.6 mM glucose for 20 min at 37°C as previously described [15–17]. Insulin-releasing effects were also assessed using buffer supplemented with 1.4 and 16.7mm glucose concentrations and with established modulators of insulin release as previously described [15–17]. In a second set of experiments, islets from NIH Swiss mice, isolated by collagenase digestion [18, 19], were incubated with a range of concentrations of esculentin-2CHa or its analogues (0.1 nM– 1 μM) for 1 h in Krebs-Ringer bicarbonate (KRB) buffer supplemented with 1.4, 5.6 or 16.7 mM glucose. Following test incubations, aliquots of buffer were retrieved and stored at -20°C for measurement of insulin by radioimmunoassay [20].

BRIN-BD11 cells [3] = settings: 3 μM peptide (highest concentration); mean ± SEM, n = 8
Protocol: In vitro insulin-releasing effects of esculentin-2CHa and its analogues were assessed using BRIN-BD11 rat clonal β-cells and mouse islets. In the first set of experiments, BRIN-BD11 cells were incubated with the peptides in the concentration range (1 pM– 3 μM) in Krebs-Ringer bicarbonate buffer containing 5.6 mM glucose for 20 min at 37°C as previously described. Insulin-releasing effects were also assessed using buffer supplemented with 1.4 and 16.7mm glucose concentrations and with established modulators of insulin release as previously described. In a second set of experiments, islets from NIH Swiss mice, isolated by collagenase digestion, were incubated with a range of concentrations of esculentin-2CHa or its analogues (0.1 nM– 1 μM) for 1 h in Krebs-Ringer bicarbonate (KRB) buffer supplemented with 1.4, 5.6 or 16.7 mM glucose. Following test incubations, aliquots of buffer were retrieved and stored at -20°C for measurement of insulin by radioimmunoassay. In the experiments with BRIN-BD11 cells, the release of lactate dehydrogenase (LDH) was measured as an indicator of the integrity of the plasma membrane using commercially available CytoTox 96 non-radioactive cytotoxicity assay kit (Promega, Madison, WI, USA) according to the manufacturer’s recommended protocol.

BRIN-BD11 cells [4] = assay: Intracellular calcium ([Ca2+]i), FLIPR calcium assay kit; type: cell-based, rat; settings: 1 μM peptide, 5 min; mean ± SEM, n = 8
Protocol: (§3) Effects of esculentin-2CHa (1 μM) and its analogues on membrane potential and [Ca^2+]i in BRIN-BD11 cells over a period of 5 min were assessed using commercially available FLIPR membrane or calcium assay kit (Molecular Devices, USA) as previously described. Data were captured using a Flexstation 3 microplate reader equipped with automatic fluid transfer unit (Molecular Devices, USA).

[5] = test system: BRIN-BD11 rat clonal β-cells; assay: In vitro insulin release from BRIN-BD11 cells; type: cell-based; settings: 5.6 mM glucose
Protocol: as §4

high fat fed mice [6] = assay: Acute in vivo glucose tolerance and insulin release; parameters: species or system mouse
Protocol: as §1
For acute in vivo studies, overnight fasted, high fat fed mice (n = 8) received an intraperitoneal injection of glucose alone (18 mmol/kg body weight) or in combination with esculentin-2CHa or its analogues (75 nmol/kg body weight). This peptide dose was selected on the basis of a pilot study that examined acute effects of different doses of esculentin-2CHa on glucose tolerance in lean mice. Blood samples were collected as described previously before injection and at times indicated in the Figures for the measurement of plasma glucose and insulin concentrations.
as §2

BRIN-BD11 cells [7] = assay: Membrane potential, FLIPR membrane assay kit; type: cell-based, rat; settings: 1 μM peptide, 5 min; mean ± SEM, n = 8
Protocol: as §3

[8] = 75 nmol/kg twice daily, 28 days
[9] = after 28 days treatment, ip glucose 18 mmol/kg
[10] = after 28 days treatment, oral glucose 18 mmol/kg
[11] = ip glucose 18 mmol/kg with peptide 75 nmol/kg, AUC 0-60 min, mean ± SEM, n = 8
[12] = peptide 75 nmol/kg ip with glucose 18 mmol/kg

GFSSIFRGVAKFASKGLGKDLAKLGVDKVACKISKQC (disulfide 31-37 (inferred)) [[L28K]Esculentin-2CHa, substituted analogue of esculentin-2CHa chosen for 28 day study]
Body weight (high fat fed mice [1]; [8]): did not affect
Food intake (high fat fed mice [1]; [8]): did not affect
Increase in non-fasting plasma insulin versus saline-treated controls (high fat fed mice [1]; [8]): 42%
Reduction in non-fasting plasma glucose versus saline-treated controls (high fat fed mice [1]; [8]): 25%
Adverse effects (high fat fed mice [1]; 28 days treatment): no adverse effects were observed
Decrease in plasma creatinine (high fat fed mice [1]; 28 days treatment): 40%
Number of islets per mm^2 of pancreas (high fat fed mice [1]; 28 days treatment): did not affect
Plasma HDL cholesterol (high fat fed mice [1]; 28 days treatment): no effect
Plasma triglycerides (high fat fed mice [1]; 28 days treatment): decreased
Reduction of alpha cell area (high fat fed mice [1]; 28 days treatment): 48%
Reduction of beta cell area (high fat fed mice [1]; 28 days treatment): 43%
Reduction of total islet area (high fat fed mice [1]; 28 days treatment): 44%
Total pancreatic insulin content (greater in high fat fed mice) (high fat fed mice [1]; 28 days treatment): reversed
O2 consumption, CO2 production, energy expenditure and respiratory exchange ratio (high fat fed mice [1]; 28 days treatment, CLAMS metabolic chambers): not affected
Bone area (high fat fed mice [1]; 28 days treatment, DXA): reversed the loss
Reduction of pancreatic glucagon (high fat fed mice [1]; 28 days treatment, ELISA): 20%
Reduction of plasma glucagon (high fat fed mice [1]; 28 days treatment, ELISA): 35%
Insulin sensitivity (high fat fed mice [1]; after 28 days treatment, insulin 25 U/kg ip): no significant effect
Improvement of glucose AUC 0–60 min, intraperitoneal glucose tolerance (high fat fed mice [1]; [9]): 20%
Improvement of insulin AUC 0–60 min, intraperitoneal glucose (high fat fed mice [1]; [9]): 66%
Improvement of glycaemic excursion following oral glucose (high fat fed mice [1]; [10]): 23%
Improvement of insulin response following oral glucose (high fat fed mice [1]; [10]): 68%
Insulin-secretory responses of isolated islets to secretagogues (high fat fed mice [1]; islets from mice treated 28 days, glucose, GLP-1, GIP, alanine, arginine, KCl): restored
Stimulation of insulin release from islets, fold of basal ([2]; 1 μM, 1 h): 3.4 fold
Mouse islets (Threshold concentration) ([2]; insulin release, 1 h incubation, n = 8): 1 nM
LDH release (% of control) (BRIN-BD11 cells [3]): 101.8±1.5 % of control
Intracellular Ca2+ (AUC, x 10^2 RFU) (BRIN-BD11 cells [4]): 7.28±0.94 x 10^2 RFU
Stimulatory effect on insulin release at 3 μM compared with native peptide ([5]; 3 μM): greater
BRIN-BD11 cells (Threshold concentration) ([5]; minimum concentration producing a significant increase in rate of insulin release, 20 min, 37°C, n = 8): 10 pM
Plasma glucose (AUC) (high fat fed mice [6]; [11]): 327.61±36.87 ^, Δ mmol/l.min
Plasma insulin (AUC) (high fat fed mice [6]; [11]): 262.81±30.56 ^,ΔΔΔ ng/ml.min
Decrease of plasma glucose AUC versus glucose alone (high fat fed mice [6]; [12]): 52%
Stimulation of insulin response relative to that with esculentin-2CHa (high fat fed mice [6]; [12]): 2.8 fold
Membrane potential (AUC, x 10^3 RFU) (BRIN-BD11 cells [7]): 7.78±0.22 x 10^3 RFU
